Measured values from US5834288A, “KDN-specific deminoneuraminidase from Sphingobacterium multivorum” (Seikagaku Corporation, priority 1994, dated 1998).
Entries after “also recorded” stand apart in the source; their conditions may differ. Like-named read-outs stand apart in the source and are kept apart here.

Columns and labels:
[1] = test system: enzyme of the present invention (KDNase); experiment: Substrate specificity: cleavage of ketosidic linkage, detected by thin layer chromatography; assay type: biochemical, Sphingobacterium mOL12-4s; design: key to Presence or absence of cleavage: Those in which KDN, Neu5Ac, or Neu5Gc was liberated are indicated by "+"; those in which KDN, Neu5Ac, or Neu5Gc was not liberated at all are indicated by "-"; settings: for Presence or absence of cleavage: substrate corresponding to 5 μg KDN, Neu5Ac or Neu5Gc, enzyme 80 milliunits, 25° C., 20 hours, pH 6.0, 0.1M NaCl
Protocol: The reactivity of the enzyme of the present invention was investigated for various KDN-containing complex carbohydrates and carbohydrates and sialic acid-containing complex carbohydrates and carbohydrates.
Each of the foregoing complex carbohydrates or carbohydrates containing KDN or sialic acid, which corresponded to 5 μg of KDN or N-acetylneuraminicacid (Neu5Ac) or N-glycolylneuraminic acid (Neu5Gc), was allowed to coexist with the enzyme of the present invention (80 milliunits) at 25° C. for 20 hours in 10 μl of 0.1M Tris-acetate buffer (pH 6.0) containing 0.1M NaCl.
The reaction solution was spotted on a plate for silica gel thin layer chromatography (produced by Merck), and developed for 7 hours with 1-propanol: 25% aqueous ammonia: water=6:1:2.5 (volume ratio). After the development, the plate was dried, on which 10% sulfuric acid ethanol solution was sprayed. The plate was heated at 120° C. to cause color development for the complex carbohydrates or carbohydrates and liberated KDN, Neu5Ac, or Neu5Gc. A control was provided, in which the reaction was performed without addition of the enzyme. Those in which KDN, Neu5Ac, or Neu5Gc was liberated are indicated by "+", and those in which KDN, Neu5Ac, or Neu5Gc was not liberated at all are indicated by "-".

[2] = test system: enzyme of the present invention (KDNase); experiment: Inhibition and activation of the enzyme, 4-MU-KDN method; assay type: biochemical, Sphingobacterium mOL12-4s; settings: for effect on the activity of the enzyme: added at 1 mM
Protocol: Specifically, 1.4 nmol of 4-MU-KDN was added to an enzyme solution prepared by dissolving the enzyme in 20 μl of 0.1M Tris-acetate buffer (pH 6.0)/0.1M NaCl to perform a reaction at 25° C. for 30 minutes. After the reaction, an aliquot of the reaction solution (20 μl) was mixed with 2.5 ml of 85 mM glycine-carbonate buffer (pH 9.3) to measure the fluorescent strength (exciting wavelength: 365 nm, measuring wavelength: 450 nm). For the measurement of the fluorescent strength, reference was made to Biochemistry, Vol. 18, No. 13, pp. 2783-2787. A fluorescent strength, which was obtained when the reaction was performed in the same manner as described above except that the enzyme was not added, was used as control. An amount of the enzyme, which hydrolyzed 1 nmol of 4-MU-KDN per 1 minute at 25° C., was defined as 1 unit.
In order to investigate influences of, for example, inorganic ions and EDTA (ethylenediaminetetraacetic acid) on the activity of the enzyme of the present invention, these compounds were added to the reaction solution to perform the enzyme reaction in accordance with the 4-MU-KDN method.
The influence of the ionic strength on the enzyme of the present invention was investigated.
2,3-Dehydro-2-deoxy-N-acetylneuraminic acid is a specific inhibitor for known sialidase which cleaves the ketosidic linkage formed by N-acylneuraminic acid.

[3] = test system: Sphingobacterium mOL12-4s; experiment: Induction of KDNase in Sphingobacterium mOL12-4s; settings: for Number of cells: 0.1% (w/v) added substance in M9 liquid medium, 6.1×10^10 cells inoculated; for Number of cells / KDNase activity per cells / Number of cells, ratio to before addition (value in []) / KDNase activity: 25° C., 24 hours; for Number of cells, ratio to before addition (value in []): before addition = 1; for KDNase activity: supernatant of disrupted cells; for fold induction at 1000 µg/mL: 24 h
Protocol: Bacterial cells (4.0×10^8) of Sphingobacterium mOL12-4s were inoculated into 40 ml of M9 liquid medium containing 1% (w/v) casein hydrolysate (casamino acid, produced by Gibco) and 1% (w/v) glucose (Glc), and cultivated at 25° C. for 44 hours. Microbial cells (bacterial cells) at the growth phase were collected, and washed twice with M9 liquid medium. The microbial cells (6.1×10^10 cells) were inoculated into 2.0 ml of M9 liquid medium containing 0.1% (w/v) crude KDN-OS, KDN-OS, KDN, Neu5Ac, acid hydrolysate of colominic acid (oligo-Neu5Ac; Kitazume, S. et al., Anal. Biochem., 202, 25-34 (1992)), or Glc, and incubated at 25° C. for 24 hours to measure the number of growable cells and the KDNase activity. The number of cells was determined by diluting each incubated cell cultivation liquid to inoculate an obtained diluted solution into an LB agar medium plate, and counting a number of grown colonies (Kitajima, K. et al., J. Biol. Chem., 269, 21415-21419). In order to measure the KDNase activity of the cells, the cells were collected by means of centrifugation at 5,000 rpm or 1,500× g for 10 minutes. The collected cells were suspended in 0.5 ml of 100 mM Tris-acetate buffer (pH 6.0) containing 100 mM NaCl, and disrupted by means of ultrasonication (50 watts, 1 minute). The disrupted preparation was centrifuged at 10,000 rpm or 6,000× g for 10 minutes to subsequently obtain a supernatant for which the KDNase activity was measured. The numerical value in [] in Table 1 indicates a ratio provided that the activity before the addition is regarded as 1.

[4] = test system: enzyme of the present invention (KDNase); experiment: Measurement of Michaelis constant and Vmax with 4-MU-KDN as substrate; assay type: biochemical, Sphingobacterium mOL12-4s; settings: 25° C.; for Vmax: pH 6.0
Protocol: The Michaelis constant (Km) and the maximum enzyme reaction velocity (Vmax) were determined on condition that 4-methylumbelliferyl KDN (4-MU-KDN) was used as a substrate for the enzyme of the present invention. The enzyme (32 milliunits) and the substrate (4-MU-KDN, 6.7 μM) were reacted at 25° C. in 216 μl of a reaction solution (0.1M Tris-acetate buffer (pH 6.0)/0.1M NaCl containing 0.1 mg/ml of bovine serum albumin). As a result, 4-methylumbelliferone (4-MU) was liberated linearly within 1 hour.
At this enzyme concentration, initial reaction velocities were measured by performing the reaction at 25° C. for 30 minutes in the same reaction solution as described above while variously changing the concentration of 4-MU-KDN in a range of 21 to 167 μM. A Lineweaver-Burkplot was obtained, and thus the Michaelis constant was calculated.

[5] = read-out: KDNase activity per cells, ratio to before addition (value in [])
[6] = read-out: KDNase activity, ratio to before addition (value in [])

Q: Which “Presence or absence of cleavage” value [1] does the source give for `O=C(CO)NC1C(O)CC(OC(CO)C(O)C2OC(O)(C(=O)O)CC(O)C2NC(=O)CO)(C(=O)O)OC1C(O)C(O)CO` (stereo not drawn) [Neu5Gc dimer, N-glycolylneuraminic acid (Neu5Gc) dimer] here?
A: The value was “-”.

Q: Which “Presence or absence of cleavage” value [1] does the source give for `CC(=O)NC(CO)C(OC1OC(CO)C(O)C(O)C1O)C(O)C(O)COC1(C(=O)O)CC(O)C(NC(C)=O)C(C(O)C(O)CO)O1` (stereo not drawn) [Neu5Acα2→6(Galβ1→3)GalNAcol] here?
A: Its value is “-”.

Q: Which “effect on the activity of the enzyme” value [2] does the source give for `[Ca+2]` [calcium ion] here?
A: The value was “not affected”.

Q: How did the enzyme activity maintained ([2]; 0.1%, 30 min) turn out when `C[C@H](CCC(=O)O)[C@H]1CC[C@H]2[C@@H]3[C@H](O)C[C@@H]4C[C@H](O)CC[C@]4(C)[C@H]3C[C@H](O)[C@]12C` [sodium cholate] was run?
A: The enzyme activity maintained was “about 90%”.

Q: And the “enzyme activity in the presence of the additive” value ([2]; 0.5%)?
A: Its value is “substantially disappeared; also recorded: disappears”.

Q: “N-Acetylneuraminic acid lactose [Neu5Ac lactose]” was tested. Which “Presence or absence of cleavage” value [1] did it give?
A: Its value is “-”.

Q: For `CC(=O)N[C@H]1[C@H]([C@H](O)[C@H](O)CO)OC(O)(C(=O)O)C[C@@H]1O` (stereo partly drawn) [Neu5Ac, N-acetylneuraminic acid], which Number of cells [3] is on record?
A: Its Number of cells is 2.5 × 10^10.

Q: What about the “KDNase activity per cells” value ([3]; 0.1% (w/v)) of the same compound?
A: The value was 6.0 milliunit/10^10 cells.

Q: What about the “Number of cells, ratio to before addition (value in [])” value ([3]; 0.1% (w/v)) of the same compound?
A: Its value is 0.41.

Q: What about the KDNase activity ([3]; 0.1% (w/v)) of the same compound?
A: Its KDNase activity is 15 milliunit.

Q: What about the fold induction at 1000 µg/mL [3, 5] of the same compound?
A: Its fold induction at 1000 µg/mL is 1.8.

Q: What about the fold induction at 1000 µg/mL [3, 6] of the same compound?
A: The fold induction at 1000 µg/mL was 0.75.

Q: `O=C[C@H](O)[C@@H](O)[C@H](O)[C@H](O)CO` [Glc, glucose] was tested. Which Number of cells [3] did it give?
A: The Number of cells was 1.7 × 10^12.

Q: What about the “KDNase activity per cells” value ([3]; 0.1% (w/v)) of the same compound?
A: Its value is 0.47 milliunit/10^10 cells.

Q: And the “Number of cells, ratio to before addition (value in [])” value ([3]; 0.1% (w/v))?
A: Its value is 28.

Q: What about the KDNase activity ([3]; 0.1% (w/v)) of the same compound?
A: The KDNase activity was 80 milliunit.

Q: And the fold induction at 1000 µg/mL [3, 5]?
A: Its fold induction at 1000 µg/mL is 0.14.

Q: And the fold induction at 1000 µg/mL [3, 6]?
A: The fold induction at 1000 µg/mL was 4.

Q: Which “effect on the activity of the enzyme” value [2] does the source give for `[Mg+2]` [magnesium ion] here?
A: Its value is “not affected”.

Q: Which results are given for `[Cl-].[Na+]` [NaCl]?
A: enzyme activity at low ionic strength ([2]; 50 mM or less): extremely low; concentration giving maximum enzyme activity (ionic strength) ([2]; FIG. 10): 300 mM

Q: How did the “effect on the activity of the enzyme” value [2] turn out when `[Mn+2]` [manganese ion] was run?
A: The value was “not affected”.

Q: With colominic acid as the compound, how does the “Presence or absence of cleavage” value [1] read?
A: Its value is “-”.

Q: Which “Presence or absence of cleavage” value [1] does the source give for `O=C(O)C1(O)CC(O)C(O)C(C(O)C(CO)OC2(C(=O)O)CC(O)C(O)C(C(O)C(O)CO)O2)O1` (stereo not drawn) [KDN dimer, KDNα2→8KDN] here?
A: Its value is “+”.

Q: How did the “Presence or absence of cleavage” value [1] turn out when “KDNα2→3Galβ1→4Glcβ1→Cer [KDN-containing ganglioside GM3]” was run?
A: Its value is “+”.

Q: How did the “Presence or absence of cleavage” value [1] turn out when `CC(=O)NC1C(O)CC(OC(CO)C(O)C2OC(O)(C(=O)O)CC(O)C2NC(C)=O)(C(=O)O)OC1C(O)C(O)CO` (stereo not drawn) [Neu5Ac dimer, N-acetylneuraminic acid (Neu5Ac) dimer] was run?
A: The value was “-”.

Q: Which results are given for `O=C(O)C1(O)C[C@H](O)[C@@H](O)[C@H]([C@H](O)[C@H](O)CO)O1` (stereo partly drawn) [KDN, 3-deoxy-D-glycero-D-galacto-nonulosonic acid]?
A: inhibition of the enzyme ([2]; 3 mM): inhibited; inhibition of the enzyme ([2]; concentration not given): inhibited; induction of KDNase (in words) ([3]; 0.1% (w/v)): induced KDNase; Number of cells [3]: 3.6 × 10^10; KDNase activity per cells ([3]; 0.1% (w/v)): 11 milliunit/10^10 cells; Number of cells, ratio to before addition (value in []) ([3]; 0.1% (w/v)): 0.59; KDNase activity ([3]; 0.1% (w/v)): 38 milliunit; fold induction at 1000 µg/mL [3, 5]: 3.3; fold induction at 1000 µg/mL [3, 6]: 1.9

Q: Which “action of the enzyme on the ketosidic linkage (in words)” value [1] does the source give for `Cc1cc(=O)oc2cc(OC3(C(=O)O)C[C@H](O)[C@@H](O)[C@H]([C@H](O)[C@H](O)CO)O3)ccc12` (stereo partly drawn) [4-MU-KDN, 4-methylumbelliferyl KDN] here?
A: The value was “acts on”.

Q: And the “action of the enzyme on the ketosidic linkage (in words)” value ([1]; listed as 4-methylumbelliferyl KDN)?
A: The value was “can also act on”.

Q: What about the “Presence or absence of cleavage” value [1] of the same compound?
A: The value was “+”.

Q: What about the Vmax [4] of the same compound?
A: The Vmax was 7.4 mM/min/mg protein.

Q: What about the Km ([4]; pH 6.0, 0.1M NaCl, 0.1 mg/ml BSA, Lineweaver-Burk plot, 21 to 167 μM substrate) of the same compound?
A: The Km was 19 µM.

Q: What about the Vmax ([4]; enzyme 32 milliunits in 216 μl) of the same compound?
A: Its Vmax is 0.19 µM/min.

Q: `CC(=O)NC1C(O)CC(Oc2ccc3c(C)cc(=O)oc3c2)(C(=O)O)OC1C(O)C(O)CO` (stereo not drawn) [4-MU-Neu5Ac, 4-Methylumbelliferyl Neu5Ac] was tested. Which “Presence or absence of cleavage” value [1] did it give?
A: Its value is “-”.

Q: With `O=C(O)CN(CCN(CC(=O)O)CC(=O)O)CC(=O)O` [EDTA, ethylenediaminetetraacetic acid] as the compound, how does the “effect on the activity of the enzyme” value [2] read?
A: The value was “not affected”.

Q: For Triton X-100, which “inhibition of the enzyme” value ([2]; concentration not given) is on record?
A: The value was “not inhibited; also recorded: does not inhibit”.

Q: Which “Presence or absence of cleavage” value [1] does the source give for “fetal bovine serum fetuin: fetal bovine serum fetuin purchased from Sigma” here?
A: The value was “-”.

Q: For “human transferrin: human transferrin purchased from Sigma”, which “Presence or absence of cleavage” value [1] is on record?
A: Its value is “-”.

Q: `CC(=O)N[C@H]1[C@H]([C@H](O)[C@H](O)CO)OC(C(=O)O)=C[C@@H]1O` [2,3-dehydro-2-deoxy-N-acetylneuraminic acid] was tested. Which “inhibition of the enzyme” value ([2]; concentration not given) did it give?
A: Its value is “not inhibited”.

Q: How did the “inhibition of the enzyme” value ([2]; concentration not given) turn out when `CC(=O)N[C@H]1[C@H]([C@H](O)[C@H](O)CO)OC(O)(C(=O)O)C[C@@H]1O` (stereo partly drawn) [free sialic acid, sialic acid] was run?
A: The value was “not inhibited”.
